# Assay results from patent US12729377B2, “RNAi agents and compositions for inhibiting expression of angiopoietin-like 3 (ANGPTL3), and methods of use” (Arrowhead Pharmaceuticals, Inc., priority 2017, dated 2026).
# In the oligonucleotide strings, read from the 5' end, every base follows the letter of its sugar. An asterisk marks phosphorothioate; unmarked linkages are phosphodiester. Other units and linkages are bracketed, terminal groups are in braces. A string of capitals states the bases alone. {NAG37} = tridentate N-acetyl-galactosamine targeting ligand, structure (NAG37)s; [invAb] = inverted abasic unit; m = 2'-O-methyl; f = 2'-fluoro
# How the values were obtained:
# ANGPTL3 gene [1] = test: Example 6: serum total cholesterol in mice; format: in vivo, C57bl/6 mice
# Procedure: (§1) To assess the in vivo activity of additional ANGPTL3 RNAi agents that are designed to target position 304 on the ANGPTL3 gene, six- to eight-week-old female C57bl/6 mice were used. Pre-dose serum samples were taken at day −1 after a four hour fast. At day 1, each mouse was given a single subcutaneous administration of 200 μl containing 0.5 mg/kg (mpk) of an ANGPTL3 RNAi agent in D5W (dextrose in 5% water), or control (D5W) with no RNAi agent, according to the dosing groups recited in Table 25.
# Each of the RNAi agents included a modified sequence and an N-acetyl-galactosamine-containing targeting ligand conjugated to the 5′ terminal end of the sense strand. (See Tables 3, 4, and 5 for modified sequences and targeting ligand structures). The injections were performed between the skin and muscle (i.e. subcutaneous injections) into the loose skin over the neck and shoulder area. Three (3) mice in each group were tested (n=3). Serum was collected on days 8, 15, 22, 30, and on day 43 for certain groups (i.e., Groups 1, 2, 5, and 10 only). Mice were fasted for four hours prior to each collection. ANGPTL3 protein levels in serum were measured by ELISA assay (R&D Systems), according to the manufacturer's recommendations. Triglycerides, total cholesterol, high-density lipoprotein (HDL), and low-density lipoprotein (LDL) in serum were measured on a Cobas® Integra 400 (Roche Diagnostics), according to the manufacturer's recommendations.
# (§2) The ANGPTL3 protein levels, triglyceride levels, total cholesterol levels, HDL levels, and LDL levels for each animal were normalized. For normalization, the level of ANGPTL3 protein, triglyceride, HDL, and total cholesterol, respectively, for each animal at a time point, was divided by the pre-treatment level of expression in that animal (in this case at day −1) to determine the ratio of expression “normalized to pre-treatment.” Expression at a specific time point was then normalized to the D5W control group by dividing the “normalized to pre-treatment” ratio for an individual animal by the mean “normalized to pretreatment” ratio of all mice in the D5W control group.
# ANGPTL3 protein = test: Example 10: serum ANGPTL3 protein by ELISA in mice; format: in vivo; conditions: 0.5 mg/kg single SC injection day 1, female C57bl/6 mice, n=3, ratio to D5W control
# Procedure: as §1, with “further” for “additional”, “47.” for “25.”
# Each of the RNAi agents included a modified sequence and an N-acetyl-galactosamine-containing targeting ligand conjugated to the 5′ terminal end of the sense strand. (See Tables 3, 4, and 5 for modified sequences and targeting ligand structures). As noted above, each of the ANGPTL3 RNAi agents dosed in this study included nucleotide sequences designed to target the ANGPTL3 gene at position 304. The injections were performed between the skin and muscle (i.e. subcutaneous injections) into the loose skin over the neck and shoulder area. Three (3) mice in each group were tested (n=3). Serum was collected on days 8, 15, 22, 29, and for some groups on day 36 (i.e., Groups 1, 2, and 9-13 only). Mice were fasted for four hours prior to each collection. ANGPTL3 protein levels in serum were measured by ELISA assay (R&D Systems), according to the manufacturer's recommendations. Triglycerides, total cholesterol, high-density lipoprotein (HDL), and low-density lipoprotein (LDL) in serum were measured on a Cobas® Integra 400 (Roche Diagnostics), according to the manufacturer's recommendations.
# as §2
# ANGPTL3 gene [2] = test: Example 13: serum total cholesterol in HFCS diet-fed Rhesus monkeys; format: in vivo; conditions: for Avg Chol (Cholesterol) Normalized to Pre-Treatment (Fasted): 4.0 mg/kg sc on day 1 and day 29
# Procedure: ANGPTL3 RNAi agent AD05488 was further evaluated in high-fructose corn syrup (HFCS) diet-fed Rhesus monkeys. Rhesus monkeys were placed on an HFCS diet 37 days prior to dosing. These animals were known to develop increased plasma triglycerides greater than 180 mg/dL on the HFCS diet. On day 1 and again on day 29, four (4) Rhesus monkeys were administered a subcutaneous injection containing 4.0 mg/kg of ANGPTL3 RNAi agent AD05488 formulated in saline (n=4). Two additional Rhesus monkeys were administered normal saline control.
# Fasted blood samples were drawn for analysis, and serum samples were analyzed on days-8 (predose), 8, 15, 21, 29, and 36. ANGPTL3 expression levels, triglycerides, total cholesterol, high-density lipoprotein (HDL), and low-density lipoprotein (LDL) in serum were measured on a Cobas® Integra 400 (Roche Diagnostics), according to the manufacturer's recommendations.
# The ANGPTL3 protein levels, triglyceride levels, total cholesterol levels, HDL levels, and LDL levels for each animal were normalized. For normalization, the level of ANGPTL3 protein, triglyceride, HDL, and total cholesterol, respectively, for each animal at a time point, was divided by the pre-treatment level of expression in that animal (in this case at day −8) to determine the ratio of expression “normalized to pre-treatment.”
substance,measurement,setting,value
"AD05488: RNAi agent duplex: antisense AM07235-AS, sense AM07234-SS (antisense mU*fA*mC*fUmGfAmUfCmAfAmAfUmAfUmGfUmUfGmAfG*mC; sense {NAG37}*[invAb]*mGmCmUmCmAmAmCmAfUfAfUmUmUmGmAmUmCmAmGmUmA*[invAb])","Avg Chol (total cholesterol), normalized to pre-treatment and control","ANGPTL3 gene [1]; Day 8, 0.5 mg/kg single SC injection on day 1, n=3",0.782
same,"Avg Chol (total cholesterol), normalized to pre-treatment and control","ANGPTL3 gene [1]; Day 15, 0.5 mg/kg single SC injection on day 1, n=3",0.768
same,"Avg Chol (total cholesterol), normalized to pre-treatment and control","ANGPTL3 gene [1]; Day 22, 0.5 mg/kg single SC injection on day 1, n=3",0.801
same,"Avg Chol (total cholesterol), normalized to pre-treatment and control","ANGPTL3 gene [1]; Day 30, 0.5 mg/kg single SC injection on day 1, n=3",0.961
same,"Avg Chol (total cholesterol), normalized to pre-treatment and control","ANGPTL3 gene [1]; Day 43, 0.5 mg/kg single SC injection on day 1, n=3",1.037
same,Average ANGPTL3 Protein Normalized to Pre-Treatment and Control,ANGPTL3 protein; Day 8,0.179
same,Average ANGPTL3 Protein Normalized to Pre-Treatment and Control,ANGPTL3 protein; Day 15,0.197
same,Average ANGPTL3 Protein Normalized to Pre-Treatment and Control,ANGPTL3 protein; Day 22,0.196
same,Average ANGPTL3 Protein Normalized to Pre-Treatment and Control,ANGPTL3 protein; Day 29,0.258
same,Average ANGPTL3 Protein Normalized to Pre-Treatment and Control,ANGPTL3 protein; Day 36,0.297
same,reductions in total cholesterol levels,"ANGPTL3 gene [2]; 4.0 mg/kg on days 1 and 29, HFCS diet-fed Rhesus monkeys",reductions
same,Avg Chol (Cholesterol) Normalized to Pre-Treatment (Fasted),ANGPTL3 gene [2]; Day 8,0.734
same,Avg Chol (Cholesterol) Normalized to Pre-Treatment (Fasted),ANGPTL3 gene [2]; Day 15,0.641
same,Avg Chol (Cholesterol) Normalized to Pre-Treatment (Fasted),ANGPTL3 gene [2]; Day 21,0.579
same,Avg Chol (Cholesterol) Normalized to Pre-Treatment (Fasted),ANGPTL3 gene [2]; Day 29,0.549
same,Avg Chol (Cholesterol) Normalized to Pre-Treatment (Fasted),ANGPTL3 gene [2]; Day 36,0.459
